Experimental data taken from EP4467141A1, “PYRAZOLO-QUINOLINES AS SELECTIVE INHIBITORS OF GENOTOXIC STRESS-INDUCED IKK/NF- KB PATHWAYS FOR CANCER THERAPY” (Max-Delbrück-Centrum für Molekulare Medizin in der …, priority 2023, dated 2024).

How the values were obtained:
Assay in all cases: Kinase panel study
Type in all cases: biochemical
Conditions in all cases: read-out: Percentage of inhibition; for inhibition at 1 µM: 1000nM; for inhibition at 10 µM: 10000nM
KIT V559D V654A = target: T1, KIT V559D V654A (Homo sapiens, UniProt P10721, V559D/V654A)
T1 construct: purchased Thermo Fisher Scientific
Procedure, shortened: (§1)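 Lead compounds and derivatives were profiled by ZLyte or Adapta in vitro kinase assays. Each value reports inhibition percentage at one of two concentrations, 1 µM or 10 µM.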

ABL1 F317L = target: T2, ABL1 F317L (Homo sapiens, UniProt P00519, F317L)
T2 construct: purchased Thermo Fisher Scientific
Procedure, shortened: as §1

EGFR (ErbB1) T790M = target: T3, EGFR (ErbB1) T790M (Homo sapiens, UniProt P00533, T790M)
T3 construct: purchased Thermo Fisher Scientific
Procedure, shortened: as §1

STK22B (TSSK2) = target: T4, STK22B (TSSK2) (Homo sapiens, UniProt Q96PF2)
T4 construct: purchased Thermo Fisher Scientific
T4 sequence (Q96PF2 1-358): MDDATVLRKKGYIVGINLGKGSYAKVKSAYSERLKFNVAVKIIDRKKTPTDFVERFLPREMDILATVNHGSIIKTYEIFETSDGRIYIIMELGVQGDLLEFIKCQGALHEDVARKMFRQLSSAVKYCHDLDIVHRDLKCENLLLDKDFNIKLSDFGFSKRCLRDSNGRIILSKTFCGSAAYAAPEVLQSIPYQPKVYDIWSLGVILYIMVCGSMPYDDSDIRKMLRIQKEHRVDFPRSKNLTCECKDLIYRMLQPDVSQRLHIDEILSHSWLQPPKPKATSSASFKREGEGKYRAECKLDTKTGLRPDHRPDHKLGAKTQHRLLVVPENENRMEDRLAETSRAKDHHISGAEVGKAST
Procedure, shortened: as §1

MARK2 = target: T5, MARK2 (Homo sapiens, UniProt Q7KZI7)
T5 construct: purchased Thermo Fisher Scientific
Procedure, shortened: as §1

MARK4 = target: T6, MARK4 (Homo sapiens, UniProt Q96L34)
T6 construct: purchased Thermo Fisher Scientific
T6 sequence (Q96L34 1-752): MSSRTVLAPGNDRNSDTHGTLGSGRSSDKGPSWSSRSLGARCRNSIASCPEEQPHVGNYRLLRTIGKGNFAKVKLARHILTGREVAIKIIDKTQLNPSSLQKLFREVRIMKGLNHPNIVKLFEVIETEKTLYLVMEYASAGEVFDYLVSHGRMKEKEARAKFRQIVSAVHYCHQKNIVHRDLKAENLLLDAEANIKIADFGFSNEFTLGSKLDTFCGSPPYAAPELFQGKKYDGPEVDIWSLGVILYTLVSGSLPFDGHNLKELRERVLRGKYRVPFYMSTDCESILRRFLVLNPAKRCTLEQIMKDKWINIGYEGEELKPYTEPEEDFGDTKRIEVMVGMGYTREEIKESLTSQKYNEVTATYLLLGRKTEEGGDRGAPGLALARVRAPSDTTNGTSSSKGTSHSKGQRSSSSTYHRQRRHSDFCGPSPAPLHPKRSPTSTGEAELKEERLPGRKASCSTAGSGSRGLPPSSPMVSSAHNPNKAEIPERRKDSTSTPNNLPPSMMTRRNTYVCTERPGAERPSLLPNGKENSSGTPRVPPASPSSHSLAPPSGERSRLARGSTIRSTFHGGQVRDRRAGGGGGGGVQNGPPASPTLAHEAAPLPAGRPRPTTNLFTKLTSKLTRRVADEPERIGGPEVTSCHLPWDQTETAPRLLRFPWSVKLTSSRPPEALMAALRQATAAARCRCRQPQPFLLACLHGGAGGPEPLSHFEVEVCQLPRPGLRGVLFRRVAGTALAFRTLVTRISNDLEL
Procedure, shortened: as §1

PIM1 = target: T7, PIM1 (Homo sapiens, UniProt P11309)
T7 construct: purchased Thermo Fisher Scientific
Procedure, shortened: as §1

AMPKA2/B1/G1 = target: T8, AMPKA2/B1/G1 (Homo sapiens, UniProt P54646)
T8 construct: purchased Thermo Fisher Scientific
Procedure, shortened: as §1

CAMK2B (CaMKII beta) = target: T9, CAMK2B (CaMKII beta) (Homo sapiens, UniProt Q13554)
T9 construct: purchased Thermo Fisher Scientific
Procedure, shortened: as §1

T1 sequence (P10721 26-976 V559D/V654A): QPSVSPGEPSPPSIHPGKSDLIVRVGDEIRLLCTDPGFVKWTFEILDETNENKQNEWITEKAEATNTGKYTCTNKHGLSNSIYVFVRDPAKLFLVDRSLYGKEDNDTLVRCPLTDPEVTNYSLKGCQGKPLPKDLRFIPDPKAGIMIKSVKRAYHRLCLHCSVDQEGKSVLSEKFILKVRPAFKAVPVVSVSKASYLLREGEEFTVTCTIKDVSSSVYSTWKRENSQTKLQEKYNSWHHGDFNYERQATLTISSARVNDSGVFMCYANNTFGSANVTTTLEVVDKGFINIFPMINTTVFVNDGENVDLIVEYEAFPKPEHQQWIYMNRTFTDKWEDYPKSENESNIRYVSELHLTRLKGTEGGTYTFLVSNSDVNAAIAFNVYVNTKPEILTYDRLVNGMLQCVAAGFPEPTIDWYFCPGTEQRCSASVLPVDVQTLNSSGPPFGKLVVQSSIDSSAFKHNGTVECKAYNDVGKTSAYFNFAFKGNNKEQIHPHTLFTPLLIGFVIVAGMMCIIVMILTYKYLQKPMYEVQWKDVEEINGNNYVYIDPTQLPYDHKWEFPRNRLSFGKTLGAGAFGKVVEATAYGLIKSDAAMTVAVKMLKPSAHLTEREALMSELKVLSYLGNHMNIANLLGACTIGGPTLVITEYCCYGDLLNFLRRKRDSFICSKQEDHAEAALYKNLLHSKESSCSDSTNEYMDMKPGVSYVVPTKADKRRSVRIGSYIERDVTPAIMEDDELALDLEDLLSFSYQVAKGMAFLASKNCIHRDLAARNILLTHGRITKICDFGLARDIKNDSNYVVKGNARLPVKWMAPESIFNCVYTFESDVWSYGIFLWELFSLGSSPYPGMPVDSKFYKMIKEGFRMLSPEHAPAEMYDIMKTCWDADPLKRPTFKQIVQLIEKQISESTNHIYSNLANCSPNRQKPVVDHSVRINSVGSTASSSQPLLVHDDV
T7 sequence (P11309 whole entry): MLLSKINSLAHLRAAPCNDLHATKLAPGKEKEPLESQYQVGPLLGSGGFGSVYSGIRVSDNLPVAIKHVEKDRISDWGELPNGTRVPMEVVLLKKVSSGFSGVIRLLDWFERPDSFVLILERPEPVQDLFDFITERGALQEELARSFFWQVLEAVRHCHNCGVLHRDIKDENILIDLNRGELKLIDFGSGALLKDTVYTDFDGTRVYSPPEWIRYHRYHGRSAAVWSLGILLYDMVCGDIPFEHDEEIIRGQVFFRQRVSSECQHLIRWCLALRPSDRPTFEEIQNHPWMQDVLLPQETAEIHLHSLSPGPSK
T3 sequence (P00533 25-1210 T790M): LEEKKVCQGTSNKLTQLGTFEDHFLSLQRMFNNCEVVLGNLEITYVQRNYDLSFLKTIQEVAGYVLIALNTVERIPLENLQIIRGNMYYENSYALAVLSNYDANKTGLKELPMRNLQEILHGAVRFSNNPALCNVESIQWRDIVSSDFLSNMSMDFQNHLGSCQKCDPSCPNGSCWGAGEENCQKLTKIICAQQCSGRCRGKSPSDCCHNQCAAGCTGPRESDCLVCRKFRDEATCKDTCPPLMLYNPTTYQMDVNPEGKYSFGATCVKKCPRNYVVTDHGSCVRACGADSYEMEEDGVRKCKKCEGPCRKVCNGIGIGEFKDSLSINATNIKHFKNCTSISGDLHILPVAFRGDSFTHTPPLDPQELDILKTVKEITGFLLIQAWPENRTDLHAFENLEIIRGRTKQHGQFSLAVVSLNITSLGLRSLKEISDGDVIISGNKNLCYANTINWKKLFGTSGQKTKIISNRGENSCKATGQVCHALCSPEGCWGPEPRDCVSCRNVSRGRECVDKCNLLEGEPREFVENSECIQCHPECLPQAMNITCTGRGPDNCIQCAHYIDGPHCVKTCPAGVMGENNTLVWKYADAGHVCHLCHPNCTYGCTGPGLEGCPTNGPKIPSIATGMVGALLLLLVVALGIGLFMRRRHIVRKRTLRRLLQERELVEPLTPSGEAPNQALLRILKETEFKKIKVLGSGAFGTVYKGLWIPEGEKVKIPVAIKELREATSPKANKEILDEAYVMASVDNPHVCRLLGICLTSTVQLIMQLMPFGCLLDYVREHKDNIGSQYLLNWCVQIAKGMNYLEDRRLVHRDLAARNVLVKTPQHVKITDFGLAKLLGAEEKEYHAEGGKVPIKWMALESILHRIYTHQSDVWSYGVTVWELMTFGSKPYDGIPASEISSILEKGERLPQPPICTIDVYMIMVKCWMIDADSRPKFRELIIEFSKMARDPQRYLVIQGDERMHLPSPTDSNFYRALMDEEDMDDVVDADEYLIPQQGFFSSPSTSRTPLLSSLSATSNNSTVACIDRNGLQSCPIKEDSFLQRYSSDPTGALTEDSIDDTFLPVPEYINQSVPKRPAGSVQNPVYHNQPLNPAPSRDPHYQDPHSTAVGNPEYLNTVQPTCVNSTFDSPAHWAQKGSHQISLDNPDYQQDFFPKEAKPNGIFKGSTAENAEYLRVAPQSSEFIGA
T5 sequence (Q7KZI7 whole entry): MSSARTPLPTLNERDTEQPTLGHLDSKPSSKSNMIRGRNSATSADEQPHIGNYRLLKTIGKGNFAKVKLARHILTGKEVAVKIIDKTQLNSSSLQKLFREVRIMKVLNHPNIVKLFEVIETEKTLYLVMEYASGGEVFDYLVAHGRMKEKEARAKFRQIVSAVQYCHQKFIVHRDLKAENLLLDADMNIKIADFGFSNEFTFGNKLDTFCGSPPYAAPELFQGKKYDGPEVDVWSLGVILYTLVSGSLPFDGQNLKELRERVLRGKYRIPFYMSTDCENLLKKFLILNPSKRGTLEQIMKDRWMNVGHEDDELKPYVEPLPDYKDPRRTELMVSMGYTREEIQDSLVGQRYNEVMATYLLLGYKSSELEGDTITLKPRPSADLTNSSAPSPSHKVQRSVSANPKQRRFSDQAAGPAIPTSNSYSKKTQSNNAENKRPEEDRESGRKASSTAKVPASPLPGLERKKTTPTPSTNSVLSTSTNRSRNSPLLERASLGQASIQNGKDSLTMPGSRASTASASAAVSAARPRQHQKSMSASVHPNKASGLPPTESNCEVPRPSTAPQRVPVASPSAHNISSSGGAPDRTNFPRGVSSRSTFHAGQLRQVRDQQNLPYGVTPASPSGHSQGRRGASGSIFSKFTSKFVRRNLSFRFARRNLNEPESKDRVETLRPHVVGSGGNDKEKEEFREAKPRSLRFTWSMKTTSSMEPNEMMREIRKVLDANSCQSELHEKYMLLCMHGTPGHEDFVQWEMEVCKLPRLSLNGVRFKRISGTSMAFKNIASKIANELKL
T2 sequence (P00519 whole entry F317L): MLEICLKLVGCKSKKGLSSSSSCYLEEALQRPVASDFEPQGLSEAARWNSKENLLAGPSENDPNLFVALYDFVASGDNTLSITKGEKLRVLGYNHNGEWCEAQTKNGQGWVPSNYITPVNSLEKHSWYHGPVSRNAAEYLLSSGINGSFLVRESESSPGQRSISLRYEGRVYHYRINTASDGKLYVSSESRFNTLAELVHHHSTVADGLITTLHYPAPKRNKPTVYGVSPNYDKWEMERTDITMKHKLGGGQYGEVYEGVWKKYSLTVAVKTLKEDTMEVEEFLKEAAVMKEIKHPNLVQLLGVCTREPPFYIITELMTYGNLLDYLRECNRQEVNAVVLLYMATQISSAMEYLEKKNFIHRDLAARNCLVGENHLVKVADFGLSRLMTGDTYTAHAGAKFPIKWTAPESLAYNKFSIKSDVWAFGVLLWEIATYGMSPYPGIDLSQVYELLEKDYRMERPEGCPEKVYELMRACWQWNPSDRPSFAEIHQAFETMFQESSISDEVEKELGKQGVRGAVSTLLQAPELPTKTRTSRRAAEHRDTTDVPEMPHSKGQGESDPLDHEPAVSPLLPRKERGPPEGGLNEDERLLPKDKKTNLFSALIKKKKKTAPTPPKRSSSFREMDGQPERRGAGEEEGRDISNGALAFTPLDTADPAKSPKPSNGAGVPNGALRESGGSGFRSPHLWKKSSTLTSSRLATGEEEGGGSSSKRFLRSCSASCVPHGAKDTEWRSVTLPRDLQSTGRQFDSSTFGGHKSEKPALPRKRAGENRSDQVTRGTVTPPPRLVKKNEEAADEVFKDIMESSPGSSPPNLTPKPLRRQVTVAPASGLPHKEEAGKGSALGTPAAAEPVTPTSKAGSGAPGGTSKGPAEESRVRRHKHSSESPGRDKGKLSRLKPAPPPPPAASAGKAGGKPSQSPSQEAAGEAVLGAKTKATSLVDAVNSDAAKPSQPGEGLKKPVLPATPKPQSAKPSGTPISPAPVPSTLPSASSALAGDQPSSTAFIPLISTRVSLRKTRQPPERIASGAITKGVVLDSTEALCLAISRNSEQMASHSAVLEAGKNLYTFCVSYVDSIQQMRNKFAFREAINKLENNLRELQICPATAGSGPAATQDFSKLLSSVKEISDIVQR

Compound	inhibition at 1 µM (KIT V559D V654A)	inhibition at 10 µM (KIT V559D V654A)	inhibition at 1 µM (ABL1 F317L)	inhibition at 10 µM (ABL1 F317L)	inhibition at 1 µM (EGFR (ErbB1) T790M)	inhibition at 10 µM (EGFR (ErbB1) T790M)	inhibition at 1 µM (STK22B (TSSK2))	inhibition at 10 µM (STK22B (TSSK2))	inhibition at 1 µM (MARK2)	inhibition at 10 µM (MARK2)	inhibition at 1 µM (MARK4)	inhibition at 10 µM (MARK4)	inhibition at 1 µM (PIM1)	inhibition at 10 µM (PIM1)	inhibition at 1 µM (AMPKA2/B1/G1)	inhibition at 10 µM (AMPKA2/B1/G1)	inhibition at 1 µM (CAMK2B (CaMKII beta))	inhibition at 10 µM (CAMK2B (CaMKII beta))
COc1ccc2c(c1OC)c(=O)n1c3ccc(O)cc3c3ccnc2c31 [MW01, 5-Hydroxy-10,11-dimethoxy-9H-benzo[c]indolo[3,2,1-ij][1,5]naphthyridin-9-one]	-10%	-12%	8%	13%	8%	19%	11%	20%	10%	5%	9%	15%	11%	24%	8%	32%	9%	37%
COc1ccc2cc3c(N)nn(C(=O)c4cccc(N(C)C)c4)c3nc2c1 [MW05, (3-Amino-7-methoxypyrazolo[3,4-b]quinolin-1-yl)-[3-(dimethylamino)phenyl]methanone]	-16%	-37%	6%	4%	4%	0%	11%	2%	3%	5%	-3%	-10%	8%	-9%	5%	0%	5%	3%
